Assay results reported in patent US20240407993A1, “PEPTIDE HAVING ANTI-AGING ACTIVITY, AND USE THEREOF” (CAREGEN CO., LTD., priority 2021, published 2024).

Tests used:
[1] = system: Elastin; test: Elastin mRNA level decreased by UV irradiation, RT-PCR in fibroblasts; type: cell-based, mouse; settings: NIH3T3 cells, 8 J/cm^2 UVA, peptide 1, 10, 50 μM, 6 hours after irradiation; FIGS. 5A, 5D
Method: (§1) The expression of genes related to extracellular matrix components is inhibited when irradiated with UV.
(§2) First, NIH3T3 cells were seeded in a 6-well plate at a cell density of 5×10^5 cell/well, and then the cells were cultured in DMEM medium containing 10% fetal bovine serum (FBS) for 24 hours. The cultured cells were washed once with serum free DMEM medium, and then the peptide of the present invention was mixed in 1 mL of the serum free DMEM medium at each of concentrations of 1, 10, and 50 μM, and dispensed into the cells. A positive control (PC) was treated with 50 μM of Quercetin instead of the above peptide. The cells were cultured in a CO2 incubator at 37° C. for 1 hour.
(§3) The medium of the cultured cells was transferred to a tube (e-tube), 1 ml of PBS was added, and irradiation was performed with 8 J/cm^2 of UVA using a UV irradiator (VILBER LOURMAT, Cat No.: 3102-BSU, France). After removing PBS, 900 μL of the medium transferred to the tube was dispensed, and culture was performed in a CO2 incubator at 37° C. for 6 hours. The cultured cells were washed twice with PBS, and then RNA was extracted from the cells using easy blue (iNtRON, Cat. No.: 17061, Korea). The amount of RNA extracted was quantified, 1,000 ng of RNA was added per tube, and RT reaction was performed using a kit (enzynomics, Cat. No.: RT200, Korea). […]

[2] = system: Fibronectin; test: Fibronectin mRNA level decreased by UV irradiation, RT-PCR in fibroblasts; type: cell-based, mouse; settings: NIH3T3 cells, 8 J/cm^2 UVA, peptide 1, 10, 50 μM, 6 hours after irradiation; FIGS. 5A, 5C
Method: as §1, §2, §3

[3] = system: SIRT1; test: SIRT1 mRNA level decreased by UV irradiation, RT-PCR in keratinocytes; type: cell-based, human; settings: HaCaT cells, 20 mJ/cm^2 UVB, peptide 1, 10, 50 μM, 4 hours after irradiation; FIGS. 7A, 7B
Method: The expression of genes related to aging is inhibited when irradiated with UV.
as §2, with “First, HaCaT” for “First, NIH3T3”, “with 2.5 mM” for “with 50 μM”, “of N-Acetylcysteine (NaC)” for “of Quercetin”, “peptide.” for “peptide. The cells were cultured in a CO2 incubator at 37° C. for 1 hour.”
The cells were cultured in a CO2 incubator at 37° C. for 1 hour. The medium of the cultured cells was transferred to a tube (e-tube), 1 ml of PBS was added, and irradiation was performed with 20 mJ/cm^2 of UVB using a UV irradiator (VILBER LOURMAT, Cat No.: 3102-BSU, France). After removing PBS, 900 μL of the medium transferred to the tube was added, and culture was performed in a CO2 incubator at 37° C. for 4 hours. The cultured cells were washed twice with PBS, and then RNA was extracted from the cells using easy blue (iNtRON, Cat. No.: 17061, Korea). The extracted RNA was subjected to RT reaction using a kit (enzynomics, Cat. No.: RT200, Korea). Thereafter, RT-PCR was performed using a PCR kit (enzynomics, Cat. No.: R581T, Korea). […]

[4] = system: hyaluronic acid; test: Hyaluronic acid secretion (HA ELISA) in keratinocytes; type: cell-based, human; settings: HaCaT cells, peptide 1, 10, 50 μM, 24 hours; FIG. 2
Method: First, HaCaT cells (human keratinocyte cell line) were seeded in a 48-well plate at a cell density of 1×10^5 cell/well, and then the cells were cultured in DMEM medium containing 10% fetal bovine serum (FBS) for 24 hours. The cultured cells were washed once with serum free DMEM medium, and the peptide of the present invention was mixed in 2 mL of the serum free DMEM medium at each of concentrations of 1, 10, and 50 μM, and dispensed into three wells by 500 μL per condition. A positive control (PC) was treated with 100 nM of EGF instead of the above peptide. The cells were cultured in a CO2 incubator at 37° C. for 24 hours.
The medium of the cultured HaCaT cells was centrifuged to settle a suspended matter, and a supernatant was transferred to an e-tube and used to perform HA ELISA (ECHELON biosciences, Cat No.: K-1200, USA).

## LCACCLHNCNECQ
[1]
  mRNA level of elastin decreased by UV irradiation: increased again
[2]
  mRNA level of fibronectin decreased by UV irradiation: increased again
[3]
  mRNA level of SIRT1 decreased by UV irradiation: increased again
[4]
  secretion of hyaluronic acid protein: gradually increased as the concentration of the peptide increased
